Results from patent US12403143B2, “Pharmaceutical composition for treating functional psychiatric disorders” (OBSCHESTVO S OGRANICHENNOI OTVETSTVENNOSTYU “VALENTEK”, priority 2016, dated 2025).
Read-outs that look alike come from different tables or passages of the source.

Columns and labels:
[1] = target: T1, M1 receptor (Homo sapiens, UniProt P11229); assay: M1 muscarinic receptor activation, Fluo-4 NW Ca2+ fluorescence; assay type: cell-based; conditions: FIG. 6
T1 sequence (P11229 1-460): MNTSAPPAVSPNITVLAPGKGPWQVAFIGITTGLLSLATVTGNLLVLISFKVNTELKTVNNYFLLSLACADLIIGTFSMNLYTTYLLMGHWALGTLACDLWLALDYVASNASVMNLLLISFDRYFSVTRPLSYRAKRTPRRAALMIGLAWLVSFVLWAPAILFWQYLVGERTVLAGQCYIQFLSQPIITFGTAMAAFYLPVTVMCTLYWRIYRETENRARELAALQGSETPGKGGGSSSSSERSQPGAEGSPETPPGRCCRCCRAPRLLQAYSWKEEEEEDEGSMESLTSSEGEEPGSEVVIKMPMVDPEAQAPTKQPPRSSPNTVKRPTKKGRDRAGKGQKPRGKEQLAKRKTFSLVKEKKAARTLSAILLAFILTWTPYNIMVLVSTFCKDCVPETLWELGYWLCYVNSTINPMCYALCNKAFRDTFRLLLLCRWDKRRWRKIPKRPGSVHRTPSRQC
Protocol: The activity was determined according to the fluorescence of Fluo-4 NW indicator introduced into cells, induced by a change in Ca^2+ ion concentration in the cytosol.

[2] = tested on: rats; assay: Sub-chronic toxicity, blood composition / neutrophil kinetics; assay type: in vivo; conditions: intragastric 5 mg/kg daily for 28 days
Protocol: The neutrophil kinetics were studied within comparative tests of sub-chronic toxicity. Studies were conducted in rats upon intragastric administration of substances at a dose of 5 mg/kg. The test substances were administered daily for 28 days. Each experimental group composed of 10 animals of each sex.

[3] = tested on: mice; assay: Amphetamine-induced locomotion inhibition (ALI), model of bipolar disorder; assay type: in vivo
Text: The ability of drugs to inhibit amphetamine-induced locomotor activity (amphetamine-induced locomotion inhibition, ALI) is a consequence of their blocking effect on dopamine receptors. Amphetamine causes a disruption of the reuptake of monoamine neurotransmitters and their accumulation in the intersynaptic space; blockade of dopamine receptors by antagonists neutralizes the excessive stimulation of dopamine signaling pathways. ALI is the basic test based on the dopamine model of bipolar disorder, and allows to evaluate the ability of drug candidates to bind to brain dopamine receptors in vivo.
[…]. After that, 3 mg/kg of d-amphetamine were administered intraperitoneally to the animals and the record of the activity was resumed. The distance (in cm) travelled by the animal in the first 60 minutes after administration of antipsychotic drugs and the distance travelled in the next hour after d-amphetamine administration were estimated.

[4] = Maximum tolerated dose by dose escalation; assay type: in vivo, miniature pigs; conditions: pig, in vivo, miniature pigs, dose escalation
Protocol: (§1) To assess the safety of halogen derivatives of clozapine, the maximum tolerated dose (MTD) for miniature pigs was determined.
(§2) Initially, the pharmaceutical composition was administered at a dose of 0.53 mg/kg for 7 days. Then, on the 8th day, the administered dose of the pharmaceutical composition was increased to 1 mg/kg. After that, the dose was increased by 0.5 mg/kg every 1st, 3rd and 5th days of the seven-day cycle until an observable intoxication was noted.

[5] = tested on: miniature pigs; assay: Maximum tolerated dose by dose escalation; assay type: in vivo; conditions: extrapolated from miniature pigs
Protocol: as §1, §2

[6] = target: H1 receptor (Homo sapiens, UniProt P35367); assay: H1 receptor functional activity, Fluo-4 NW Ca2+ fluorescence
Protocol: The functional activity against H1 receptor was determined according to the fluorescence of Fluo-4 NW indicator introduced into cells, induced by a change in Ca^2+ ion concentration in the cytosol.

[7] = Metabolism and tissue distribution of fluoroclozapine after single oral administration; conditions: rats, single oral 10 mg/kg fluoroclozapine
[8] = target: 5HT2A receptor (Homo sapiens, UniProt P28223); assay: 5HT2A receptor functional antagonism, cAMP level by fluorescence; assay type: cell-based
Protocol: (§3) Response for cells expressing D2 receptors was determined by the change in cell conductance caused by the redistribution of intracellular calcium. For 5HT2A receptor, the response criterion was the level of the secondary messenger, cAMP, determined by fluorescence after lysis of the cell expressing the receptor.

[9] = target: T2, muscarinic M4 receptor (Homo sapiens, UniProt P08173); assay: M4 muscarinic receptor functional experiments, cAMP level; assay type: cell-based
T2 sequence (P08173 1-479): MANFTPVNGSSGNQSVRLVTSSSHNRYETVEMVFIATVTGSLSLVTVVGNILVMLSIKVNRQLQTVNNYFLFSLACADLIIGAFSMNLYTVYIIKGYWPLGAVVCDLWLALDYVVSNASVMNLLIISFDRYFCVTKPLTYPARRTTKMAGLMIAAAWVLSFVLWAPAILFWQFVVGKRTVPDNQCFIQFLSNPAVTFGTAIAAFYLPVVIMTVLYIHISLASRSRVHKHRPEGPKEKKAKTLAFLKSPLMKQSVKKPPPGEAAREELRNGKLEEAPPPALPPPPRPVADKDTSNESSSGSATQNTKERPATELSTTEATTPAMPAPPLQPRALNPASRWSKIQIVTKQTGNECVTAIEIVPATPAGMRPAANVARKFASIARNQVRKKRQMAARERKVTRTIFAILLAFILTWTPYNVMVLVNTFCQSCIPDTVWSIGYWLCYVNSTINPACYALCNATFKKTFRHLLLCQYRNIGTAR
Protocol: The side effect of M4 muscarinic receptor agonists is intense salivation (sialorrhea). […] Curves of response dependence on the concentration of the compound for the receptor were built; the response criterion was the level of the secondary messenger—cAMP, which is determined by fluorescence after cell lysis expressing the receptor.

[10] = tested on: CF-1 mice; assay: Sedation: total distance travelled after oral administration; assay type: in vivo
Text: The results of the in vitro experiments given in Example 4 have been confirmed by the studies of sedation.

[11] = Leucht et al., Lancet 2013; cited from earlier work
[12] = target: T3, D4.4 receptor (Homo sapiens, UniProt P21917); assay: D4 receptor functional antagonism, cAMP level by fluorescence; assay type: cell-based; conditions: ratio of binding constants
T3 sequence (P21917 1-419): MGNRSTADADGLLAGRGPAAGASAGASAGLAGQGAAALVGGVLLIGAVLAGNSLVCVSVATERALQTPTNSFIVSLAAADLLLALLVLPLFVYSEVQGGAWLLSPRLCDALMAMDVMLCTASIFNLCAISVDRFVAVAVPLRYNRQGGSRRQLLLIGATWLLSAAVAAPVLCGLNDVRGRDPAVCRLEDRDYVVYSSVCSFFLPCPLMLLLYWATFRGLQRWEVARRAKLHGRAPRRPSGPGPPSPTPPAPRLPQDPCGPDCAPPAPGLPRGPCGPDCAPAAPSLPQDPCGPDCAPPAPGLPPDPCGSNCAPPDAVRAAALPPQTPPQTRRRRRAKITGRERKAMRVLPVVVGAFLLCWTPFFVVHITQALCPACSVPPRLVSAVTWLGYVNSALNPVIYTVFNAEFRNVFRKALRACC
Protocol: as §3, with “was determined as the change” for “was determined by the change”, “calcium. For D4 receptor, the” for “calcium. For 5HT2A receptor, the”

[13] = female, read-out: MTD (females)

Sequence of H1 receptor (P35367 whole entry): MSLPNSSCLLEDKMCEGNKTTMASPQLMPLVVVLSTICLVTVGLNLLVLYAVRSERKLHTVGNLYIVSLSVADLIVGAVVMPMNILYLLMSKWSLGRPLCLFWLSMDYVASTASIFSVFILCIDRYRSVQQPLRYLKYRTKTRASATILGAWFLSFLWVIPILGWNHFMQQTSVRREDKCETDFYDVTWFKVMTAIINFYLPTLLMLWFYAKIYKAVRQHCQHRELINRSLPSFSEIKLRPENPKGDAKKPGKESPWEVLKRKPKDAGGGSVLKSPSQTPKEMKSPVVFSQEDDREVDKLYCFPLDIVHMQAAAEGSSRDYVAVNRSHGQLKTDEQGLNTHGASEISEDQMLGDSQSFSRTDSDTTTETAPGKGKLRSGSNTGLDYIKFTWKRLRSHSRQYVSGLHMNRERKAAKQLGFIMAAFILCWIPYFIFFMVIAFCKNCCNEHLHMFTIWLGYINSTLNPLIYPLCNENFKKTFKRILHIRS
Sequence of 5HT2A receptor (P28223 whole entry): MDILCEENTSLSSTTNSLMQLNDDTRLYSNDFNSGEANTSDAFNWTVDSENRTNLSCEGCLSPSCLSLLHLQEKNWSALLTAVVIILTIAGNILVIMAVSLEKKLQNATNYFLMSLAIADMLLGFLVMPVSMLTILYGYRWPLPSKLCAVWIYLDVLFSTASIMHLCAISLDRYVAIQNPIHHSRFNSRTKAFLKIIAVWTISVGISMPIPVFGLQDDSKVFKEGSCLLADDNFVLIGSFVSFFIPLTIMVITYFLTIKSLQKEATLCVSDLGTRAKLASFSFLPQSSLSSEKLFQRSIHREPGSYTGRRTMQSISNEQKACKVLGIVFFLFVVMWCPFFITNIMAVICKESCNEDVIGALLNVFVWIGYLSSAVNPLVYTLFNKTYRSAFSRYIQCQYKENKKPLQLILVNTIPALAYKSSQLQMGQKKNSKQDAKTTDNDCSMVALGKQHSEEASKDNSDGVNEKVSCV

Row | SMILES | effect on M1 receptors [1] | Stab neutrophils [2] | MTD [4, 13] | MTD ([4]; male, read-out: MTD (males)) | corresponding MTD for a human [5] | Therapeutic window width (Kb, H1/Kb, 5HT2A) [6] | increase of the risk of sedation [11] | also measured
1 | CN1CCN(C2=Nc3cc(Cl)c(F)cc3Nc3ccccc32)CC1 [Fluoroclozapine, 11-(4-methylpiperazine-1-yl)-7-fluoro-8-chloro-5H-dibenzo[b,e][1,4] diazepine] | virtually no effect on M1 receptors | 3.2 ± 0.4% | 6 mg/kg | 5 mg/kg | 450 mg per day | 0.63 |  | minimum effective dose designed for patient ([3]; depending on patient's body weight): 20-35 mg per day; minimum effective dose designed for patient ([3]; extrapolated from ALI experiment): 0.5 mg/kg; concentrations for inhibition of H1 compared with inhibition of 5HT2A (times lower) [6]: approximately equal concentrations; concentrations of fluoroclozapine and its metabolite desmethylfluoroclozapine in the brain [7]: comparable; metabolism [7]: metabolized to desmethylfluoroclozapine
2 | Fc1cc2c(cc1Cl)N=C(N1CCNCC1)c1ccccc1N2 [Desmethylfluoroclozapine, 11-(piperazine-1-yl)-7-fluoro-8-chloro-5H-dibenzo[b,e][1,4]diazepine] | is an agonist, and causes a significant response in the therapeutic drug concentration window | 4.2 ± 0.4% |  |  |  |  |  | Kb ([8]; binding constant determined from IC50, antagonism setup): 16 nM; Therapeutic window width (Kb, D2/Kb, 5HT2A) ([8]; ratio of binding constants): 34; activating concentration, times higher than that of clozapine [9]: 290 times; activating concentration, times higher than that of desmethylclozapine [9]: 30 times; motion activity ([10]; CF-1 mice, oral 10 mg/kg): insignificant decrease in motion activity; Therapeutic window width (Kb, H1/Kb, 5HT2A) ([6]; ratio of binding constants): 0.93
3 | Clc1ccc2c(c1)N=C(N1CCNCC1)c1ccccc1N2 [Desmethylclozapine, desmethylclozapine, reference compound] |  |  |  |  |  | 0.24 |  | 
4 | CN1CCN(C2=Nc3cc(Cl)ccc3Nc3ccccc32)CC1 [Clozapine, clozapine, reference compound] |  | 4.6 ± 0.7 % | 4.5 mg/kg | 3 mg/kg | 270 mg per day |  | 8.8 times | total distance travelled / sedation ([10]; mouse, in vivo): significantly reduced; number of circulating neutrophils in the blood versus control group [2]: significant increase
5 | OCCOCCN1CCN(C2=Nc3ccccc3Sc3ccccc32)CC1 [quetiapine] |  |  |  |  |  |  | 3.7 times | Therapeutic window width (Kb, D2/Kb, D4) [12]: 0.11
